Tests used:
[1] = system: ORYSA: rice (Oryza sativa); experiment: Post-Emergent Test II herbicidal activity; format: in vivo; conditions: post-emergence, 336 h, 14 days, read-out: Visual Growth Reduction (%) 14 Days After Application ORYSA; for pest or weed control at 35 g/ha: 35 g ai/ha; for pest or weed control at 70 g/ha: 70 g ai/ha; for pest or weed control at 140 g/ha: 140 g ai/ha
Experimental: (§1) Post-Emergent Test II: Seeds or nutlets of the desired test plant species were planted in Sun Gro Metro-Mix® 360 planting mixture, which typically has a pH of 6.0 to 6.8 and an organic matter content of about 30 percent, in plastic pots with a surface area of 64 square centimeters. When required to ensure good germination and healthy plants, a fungicide treatment and/or other chemical or physical treatment was applied. The plants were grown for 7-21 d in a greenhouse with an approximate 15 h photoperiod which was maintained at about 23-29° C. during the day and 22-28° C. during the night. Nutrients and water were added on a regular basis and supplemental lighting was provided with overhead metal halide 1000-Watt lamps as necessary. The plants were employed for testing when they reached the first or second true leaf stage.
(§2) A weighed amount, determined by the highest rate to be tested, of each test compound was placed in a 25 mL glass vial and was dissolved in 4 mL of a 97:3 v/v mixture of acetone and DMSO to obtain concentrated stock solutions. […] The concentrated stock solutions obtained were diluted with 20 mL of an aqueous mixture containing acetone, water, isopropyl alcohol, DMSO, Atplus 411F crop oil concentrate, and Triton® X-155 surfactant in a 48.5:39:10:1.5:1.0:0.02 v/v ratio to obtain spray solutions containing the highest application rates. Additional application rates were obtained by serial dilution of 12 mL of the high rate solution into a solution containing 2 mL of 97:3 v/v mixture of acetone and DMSO and 10 mL of an aqueous mixture containing acetone, water, isopropyl alcohol, DMSO, Atplus 411F crop oil concentrate, and Triton X®-155 surfactant in a 48.5:39:10:1.5:1.0:0.02 v/v ratio to obtain ½×, ¼×, ⅛× and 1/16× rates of the high rate. Compound requirements are based upon a 12 mL application volume at a rate of 187 liters per hectare (L/ha). Formulated compounds were applied to the plant material with an overhead Mandel track sprayer equipped with 8002E nozzles calibrated to deliver 187 L/ha over an application area of 0.503 square meters at a spray height of 18 inches […] above the average plant canopy height. Control plants were sprayed in the same manner with the solvent blank.
(§3) The treated plants and control plants were placed in a greenhouse as described above and watered by subirrigation to prevent wash-off of the test compounds. After 14 d, the condition of the test plants as compared with that of the untreated plants was determined visually and scored on a scale of 0 to 100 percent where 0 corresponds to no injury and 100 corresponds to complete kill.

[2] = system: ECHCG: barnyardgrass (Echinochloa crus-galli); experiment: Post-Emergent Test II herbicidal activity; format: in vivo; conditions: post-emergence, 336 h, 14 days, read-out: Visual Growth Reduction (%) 14 Days After Application ECHCG; for pest or weed control at 35 g/ha: 35 g ai/ha; for pest or weed control at 70 g/ha: 70 g ai/ha; for pest or weed control at 140 g/ha: 140 g ai/ha
Experimental: as §1, §2, §3

[3] = system: ABUTH: velvetleaf (Abutilon theophrasti); experiment: Post-Emergent Test II herbicidal activity; format: in vivo; conditions: post-emergence, 336 h, 14 days, read-out: Visual Growth Reduction (%) 14 Days After Application ABUTH; for pest or weed control at 35 g/ha: 35 g ai/ha; for pest or weed control at 70 g/ha: 70 g ai/ha; for pest or weed control at 140 g/ha: 140 g ai/ha
Experimental: as §1, §2, §3

[4] = system: CHEAL: lambsquarters (Chenopodium album); experiment: Post-Emergent Test II herbicidal activity; format: in vivo; conditions: post-emergence, 336 h, 14 days, read-out: Visual Growth Reduction (%) 14 Days After Application CHEAL; for pest or weed control at 35 g/ha: 35 g ai/ha; for pest or weed control at 70 g/ha: 70 g ai/ha; for pest or weed control at 140 g/ha: 140 g ai/ha
Experimental: as §1, §2, §3

[5] = system: AMARE: redroot pigweed (Amaranthus retroflexus); experiment: Post-Emergent Test II herbicidal activity; format: in vivo; conditions: post-emergence, 336 h, 14 days, read-out: Visual Growth Reduction (%) 14 Days After Application AMARE; for pest or weed control at 35 g/ha: 35 g ai/ha; for pest or weed control at 70 g/ha: 70 g ai/ha; for pest or weed control at 140 g/ha: 140 g ai/ha
Experimental: as §1, §2, §3

[6] = system: TRZAS: wheat, spring (Triticum aestivum); experiment: Post-Emergent Test II herbicidal activity; format: in vivo; conditions: post-emergence, 336 h, 14 days, read-out: Visual Growth Reduction (%) 14 Days After Application TRZAS; for pest or weed control at 35 g/ha: 35 g ai/ha; for pest or weed control at 70 g/ha: 70 g ai/ha; for pest or weed control at 140 g/ha: 140 g ai/ha
Experimental: as §1, §2, §3

[7] = system: EPHHL: wild poinsettia (Euphorbia heterophylla); experiment: Post-Emergent Test II herbicidal activity; format: in vivo; conditions: post-emergence, 336 h, 14 days, read-out: Visual Growth Reduction (%) 14 Days After Application EPHHL; for pest or weed control at 35 g/ha: 35 g ai/ha; for pest or weed control at 70 g/ha: 70 g ai/ha; for pest or weed control at 140 g/ha: 140 g ai/ha
Experimental: as §1, §2, §3

[8] = system: CYPES: yellow nutsedge (Cyperus esculentus); experiment: Post-Emergent Test II herbicidal activity; format: in vivo; conditions: post-emergence, 336 h, 14 days, read-out: Visual Growth Reduction (%) 14 Days After Application CYPES; for pest or weed control at 35 g/ha: 35 g ai/ha; for pest or weed control at 70 g/ha: 70 g ai/ha; for pest or weed control at 140 g/ha: 140 g ai/ha
Experimental: as §1, §2, §3

[9] = system: ZEAMX: maize, corn (Zea mays); experiment: Post-Emergent Test II herbicidal activity; format: in vivo; conditions: post-emergence, 336 h, 14 days, read-out: Visual Growth Reduction (%) 14 Days After Application ZEAMX
Experimental: as §1, §2, §3

[10] = system: HELAN: sunflower (Helianthus annuus); experiment: Post-Emergent Test II herbicidal activity; format: in vivo; conditions: post-emergence, 336 h, 14 days, read-out: Visual Growth Reduction (%) 14 Days After Application HELAN; for pest or weed control at 35 g/ha: 35 g ai/ha; for pest or weed control at 70 g/ha: 70 g ai/ha; for pest or weed control at 140 g/ha: 140 g ai/ha
Experimental: as §1, §2, §3

[11] = system: BRSNN: oilseed rape, canola (Brassica napus); experiment: Post-Emergent Test II herbicidal activity; format: in vivo; conditions: post-emergence, 336 h, 14 days, read-out: Visual Growth Reduction (%) 14 Days After Application BRSNN; for pest or weed control at 35 g/ha: 35 g ai/ha; for pest or weed control at 70 g/ha: 70 g ai/ha; for pest or weed control at 140 g/ha: 140 g ai/ha
Experimental: as §1, §2, §3

[12] = system: SETFA: giant foxtail (Setaria faberi); experiment: Post-Emergent Test II herbicidal activity; format: in vivo; conditions: post-emergence, 336 h, 14 days, read-out: Visual Growth Reduction (%) 14 Days After Application SETFA; for pest or weed control at 35 g/ha: 35 g ai/ha; for pest or weed control at 70 g/ha: 70 g ai/ha; for pest or weed control at 140 g/ha: 140 g ai/ha
Experimental: as §1, §2, §3

Compound	melting point [°C]	pest or weed control at 35 g/ha [1] [%]	pest or weed control at 70 g/ha [1] [%]	pest or weed control at 140 g/ha [1] [%]	pest or weed control at 35 g/ha [2] [%]	pest or weed control at 70 g/ha [2] [%]	pest or weed control at 35 g/ha [3] [%]	pest or weed control at 70 g/ha [3] [%]	pest or weed control at 140 g/ha [3] [%]	pest or weed control at 35 g/ha [4] [%]	pest or weed control at 70 g/ha [4] [%]	pest or weed control at 140 g/ha [4] [%]	pest or weed control at 35 g/ha [5] [%]	pest or weed control at 70 g/ha [5] [%]	pest or weed control at 140 g/ha [5] [%]	pest or weed control at 35 g/ha [6] [%]	pest or weed control at 70 g/ha [6] [%]	pest or weed control at 140 g/ha [6] [%]	pest or weed control at 35 g/ha [7] [%]	pest or weed control at 70 g/ha [7] [%]	other results
COC(=O)c1nc(-c2ccc3nonc3c2)c(F)c(N)c1Cl [Compound 1, Methyl 4-amino-6-(benzo[c][1,2,5]oxadiazol-5-yl)-3-chloro-5-fluoropicolinate]	180 to 182	0 to 29	0 to 29	0 to 29	75 to 84	75 to 84	85 to 94	85 to 94	95 to 100	95 to 100	95 to 100	95 to 100	75 to 84	75 to 84	95 to 100	45 to 59	45 to 59	60 to 74	60 to 74	60 to 74	pest or weed control at 140 g/ha [7]: 60 to 74%; pest or weed control at 35 g/ha [8]: 0 to 29%; pest or weed control at 70 g/ha [8]: 0 to 29%; pest or weed control at 140 g/ha [8]: 95 to 100%; pest or weed control at 35 g/ha ([9]; 35 g ai/ha): 60 to 74%; pest or weed control at 70 g/ha ([9]; 70 g ai/ha): 60 to 74%; pest or weed control at 140 g/ha ([9]; 140 g ai/ha): 60 to 74%; pest or weed control at 35 g/ha [10]: 85 to 94%; pest or weed control at 70 g/ha [10]: 95 to 100%; pest or weed control at 140 g/ha [10]: 95 to 100%; pest or weed control at 35 g/ha [11]: 60 to 74%; pest or weed control at 70 g/ha [11]: 60 to 74%; pest or weed control at 140 g/ha [11]: 60 to 74%
COC(=O)c1nc(-c2ccc3nonc3c2OC)cc(N)c1Cl [Compound 9, Methyl 4-amino-3-chloro-6-(4-methoxybenzo[c][1,2,5]oxadiazol-5-yl)picolinate]	142 to 144	0 to 29	0 to 29	0 to 29	0 to 29	0 to 29	0 to 29	0 to 29	0 to 29	60 to 74	60 to 74	75 to 84	45 to 59	60 to 74	60 to 74	0 to 29	0 to 29	0 to 29	0 to 29	0 to 29	pest or weed control at 140 g/ha [2]: 0 to 29%; pest or weed control at 35 g/ha [12]: 0 to 29%; pest or weed control at 70 g/ha [12]: 0 to 29%; pest or weed control at 140 g/ha [12]: 0 to 29%; pest or weed control at 140 g/ha [7]: 0 to 29%; pest or weed control at 35 g/ha [8]: 0 to 29%; pest or weed control at 70 g/ha [8]: 0 to 29%; pest or weed control at 140 g/ha [8]: 0 to 29%; pest or weed control at 35 g/ha [10]: 0 to 29%; pest or weed control at 70 g/ha [10]: 0 to 29%; pest or weed control at 140 g/ha [10]: 0 to 29%; pest or weed control at 35 g/ha [11]: 0 to 29%; pest or weed control at 70 g/ha [11]: 0 to 29%; pest or weed control at 140 g/ha [11]: 0 to 29%
COC(=O)c1nc(-c2cccc3nonc23)cc(N)c1Cl [Compound 16]	157 to 160	0 to 29	0 to 29	0 to 29	0 to 29	0 to 29	0 to 29	0 to 29	0 to 29	60 to 74	75 to 84	85 to 94	85 to 94	95 to 100	95 to 100	0 to 29	0 to 29	0 to 29	0 to 29	0 to 29	pest or weed control at 140 g/ha [2]: 0 to 29%; pest or weed control at 35 g/ha [12]: 0 to 29%; pest or weed control at 70 g/ha [12]: 0 to 29%; pest or weed control at 140 g/ha [12]: 0 to 29%; pest or weed control at 140 g/ha [7]: 0 to 29%; pest or weed control at 35 g/ha [8]: 0 to 29%; pest or weed control at 70 g/ha [8]: 0 to 29%; pest or weed control at 140 g/ha [8]: 0 to 29%; pest or weed control at 35 g/ha [10]: 0 to 29%; pest or weed control at 70 g/ha [10]: 30 to 44%; pest or weed control at 140 g/ha [10]: 60 to 74%; pest or weed control at 35 g/ha [11]: 30 to 44%; pest or weed control at 70 g/ha [11]: 45 to 59%; pest or weed control at 140 g/ha [11]: 60 to 74%

Reference: US9006250B2, “4-amino-6-(heterocyclic)picolinates and 6-amino-2-(heterocyclic)pyrimidine-4-carboxylates and their use as herbicides” (Dow AgroSciences, LLC, priority 2013, dated 2015)
